# pEC50, pIC50: −log10 of the molar value.
# Legend:
# [1] = biological target: SARS-CoV-2 Papain-like (PLpro) protease (Severe acute respiratory syndrome coronavirus 2, UniProt P0DTD1); assay: SARS-CoV-2 Papain-like (PLpro) protease biochemical enzyme inhibition assay (ubiquitin-fluorophore substrate, Ub-R110); settings: Ub-R110 substrate; run in duplicate; read-out: PLpro IC50
# [2] = test system: SARS-CoV-2 replicon; assay: microbe, parasite or virus in culture; format: cell-based; settings: Severe acute respiratory syndrome coronavirus 2, Huh-7
SMILES,pIC50 [1],pEC50 [2]
O=C(NCC#Cc1ncc(F)cn1)C(=O)NCc1ccccc1C(=O)NC1(c2cc(F)cc(-c3cnn(C4CC4)c3)c2)CC1 [Example 248],> 7.00,> 6.00
CC(C)n1ccnc1C#CCNC(=O)C(=O)NCc1ccccc1C(=O)NC1(c2cc(F)cc(-c3cnn(C4CC4)c3)c2)CC1 [Example 277],> 7.00,> 6.00
C#CCNC(=O)C(=O)NCc1ccccc1C(=O)NC1(c2cc(Cl)cc(-n3cccn3)c2)CC1 [Example 481],6.00 to 7.00,5.00 to 6.00
C#CCNC(=O)C(=O)NCc1ccccc1C(=O)NC1(c2ccc3c(cnn3C)c2)CC1 [Example 344],> 7.00,> 6.00
O=C(NCC#Cc1nccs1)C(=O)NCc1ccccc1C(=O)NC1(c2cc(F)cc(-c3cnn(C4COC4)c3)c2)CC1 [Example 253],> 7.00,> 6.00
N#Cc1ccc(C#CCNC(=O)C(=O)NCc2ccccc2C(=O)NC2(c3ccc4ccccc4c3)CC2)nc1 [Example 190],> 7.00,> 6.00
Cn1cc2cc(C3(NC(=O)c4ccccc4CNC(=O)C(=O)NCC#Cc4ccc(S(C)(=O)=O)cc4F)CC3)ccc2n1 [Example 147],> 7.00,> 6.00
O=C(NCC#CBr)C(=O)NCc1ccccc1C(=O)NC1(c2cc(Br)cc3ccccc23)CC1 [Example 154],> 7.00,> 6.00
NC(=O)C(=O)NCc1ccccc1C(=O)NC1(c2cc(-c3cnn(C4CC4)c3)cc3ccccc23)CC1 [Example 321],> 7.00,5.00 to 6.00
COc1cccnc1C#C[C@H](C)NC(=O)C(=O)NCc1ccccc1C(=O)NC1(c2cc(F)cc(-c3cnn(C4CC4)c3)c2)CC1 [Example 265],> 7.00,> 6.00
C[C@@H](C#Cc1ccc(C#N)c(F)c1)NC(=O)C(=O)NCc1ccccc1C(=O)NC1(c2ccc3nn(C)cc3c2)CC1 [Example 106],> 7.00,> 6.00
CC(=O)N1CCN(c2cc(C3(NC(=O)c4ccccc4CNC(=O)C(=O)NCC#N)CC3)c3ccccc3c2)CC1 [Example 328],> 7.00,5.00 to 6.00
O=C(/C=C/CNC(=O)C(=O)NCc1ccccc1C(=O)NC1(c2cccc3ccccc23)CC1)Nc1ccccn1 [Example 569],6.00 to 7.00,> 6.00
O=C(NCC#Cc1nccs1)C(=O)NCc1ccccc1C(=O)NC1(c2cc(-c3ccn(C4CC4)n3)cc(F)c2F)CC1 [Example 305],> 7.00,> 6.00
O=C(NC/C=C1\CCOC1=O)C(=O)NCc1ccccc1C(=O)NC1(c2cccc3ccccc23)CC1 [Example 153],> 7.00,> 6.00
O=C(NC/C=C/C(=O)N1CC(F)(F)C1)C(=O)NCc1ccccc1C(=O)NC1(c2cccc3ccccc23)CC1 [Example 554],6.00 to 7.00,5.00 to 6.00
CN1CCC1COc1ccc(CNC(=O)C(=O)NCC#N)c(C(=O)NC2(c3cccc4ccccc34)CC2)c1 (centres unmarked) [Example 331],> 7.00,> 6.00
O=C(NCC#Cc1nccs1)C(=O)NCc1ccccc1C(=O)NC1(c2cc(F)cc(C(=O)Nc3ccc(F)cc3F)c2)CC1 [Example 82],> 7.00,> 6.00
CC(C)(O)Cn1cc(-c2cc(C3(NC(=O)c4ccccc4CNC(=O)C(=O)NCC#N)CC3)c3ccccc3c2)cn1 [Example 353],> 7.00,> 6.00
N#CCNC(=O)C(=O)NCc1ccccc1C(=O)NC1(c2cc(Cl)cc(-c3cncs3)c2)CC1 [Example 448],> 7.00,5.00 to 6.00

SMILES,pIC50 [1],pEC50 [2]
C#CCNC(=O)C(=O)NCc1ccccc1C(=O)NC1(c2cc(-c3cccs3)cc(Cl)c2F)CC1 [Example 303],> 7.00,> 6.00
N#CCNC(=O)C(=O)NCc1ccccc1C(=O)NC1(c2ccc3sc4ccccc4c3c2)CC1 [Example 369],> 7.00,5.00 to 6.00
CON(C)C(=O)/C=C/CNC(=O)C(=O)NCc1ccccc1C(=O)NC1(c2cccc3ccccc23)CC1 [Example 573],6.00 to 7.00,5.00 to 6.00
COc1ccc2cccc(C3(NC(=O)c4ccccc4CNC(=O)C(=O)NCC#N)CC3)c2c1 [Example 348],> 7.00,5.00 to 6.00
C#CCNC(=O)C(=O)NCc1ccccc1C(=O)NC1(c2cc(Cl)cc(C(=O)N(C)c3ccc(F)cc3)c2)CC1 [Example 77],> 7.00,5.00 to 6.00
C#CCNC(=O)C(=O)NCc1ccccc1C(=O)NC1(c2cccc3nn(C)cc23)CC1 [Example 342],> 7.00,> 6.00
N#CCNC(=O)C(=O)NCc1ccccc1C(=O)NC1(c2ccc(F)c(-c3cnn(C4CC4)c3)c2)CC1 [Example 221],> 7.00,5.00 to 6.00
CC(C)(O)c1ccc(-c2cc(C3(NC(=O)c4ccccc4CNC(=O)C(=O)NCC#N)CC3)c3ccccc3c2)s1 [Example 354],> 7.00,> 6.00
C[C@@H](C#Cc1ccccc1C#N)NC(=O)C(=O)NCc1ccccc1C(=O)NC1(c2ccc3nn(C)cc3c2)CC1 [Example 99],> 7.00,> 6.00
C#CCNC(=O)C(=O)NCc1ccccc1C(=O)NC1(c2cc(F)cc(-c3cn(C)nc3C)c2)CC1 [Example 234],> 7.00,> 6.00
COC(=O)/C=C/CNC(=O)C(=O)NCc1ccccc1C(=O)N[C@H](C)c1cc(-c2cnn(C(F)F)c2)cc(C(F)(F)F)c1 [Example 462],> 7.00,> 6.00
Cn1cc2cc(C3(NC(=O)c4ccccc4CNC(=O)C(=O)NCC#N)CC3)ccc2n1 [Example 341],6.00 to 7.00,< 5.00
Cn1ccnc1C#CCNC(=O)C(=O)NCc1ccccc1C(=O)NC1(c2ccc3ccccc3c2)CC1 [Example 197],> 7.00,> 6.00
Cc1nn(C2CC2)c(C)c1-c1cc(Cl)cc(C2(NC(=O)c3ccccc3CNC(=O)C(=O)NCC#N)CC2)c1 [Example 130],> 7.00,5.00 to 6.00
C#CCNC(=O)C(=O)NCc1ccccc1C(=O)NC1(c2cc(C#C)cc(C(F)(F)F)c2)CC1 [Example 69],> 7.00,> 6.00
O=C(NCC#Cc1nccs1)C(=O)NCc1ccccc1C(=O)NC1(c2cc(F)cc(-c3ccn(C(F)F)n3)c2)CC1 [Example 136],> 7.00,> 6.00
COc1cc(C2(NC(=O)c3ccccc3CNC(=O)C(=O)N[C@@H](C)C#Cc3ccc(C#N)cc3F)CC2)cc2cn(C3CC3)nc12 [Example 334],> 7.00,> 6.00
Cc1nn(C)c(C)c1-c1cc(C2(NC(=O)c3ccccc3CNC(=O)C(=O)NCC#Cc3nccs3)CC2)c2ccccc2c1 [Example 300],> 7.00,> 6.00
CN1C(=O)c2cccc3c(C4(NC(=O)c5ccccc5CNC(=O)C(=O)NCC#N)CC4)ccc1c23 [Example 428],> 7.00,5.00 to 6.00
COc1cc(C2(NC(=O)c3ccccc3CNC(=O)C(=O)N[C@@H](C)C#Cc3ccc(C#N)cc3OC(F)(F)F)CC2)cc2cn(C3CC3)nc12 [Example 216],> 7.00,> 6.00

SMILES,pIC50 [1],pEC50 [2]
C#CCNC(=O)C(=O)NCc1ccccc1C(=O)NC1(c2cc(Cl)cc(-c3cnc(C4CC4)nc3)c2)CC1 [Example 73],> 7.00,> 6.00
CC(C)OC(=O)/C=C/CNC(=O)C(=O)NCc1ccccc1C(=O)NC1(c2cccc3ccccc23)CC1 [Example 538],6.00 to 7.00,5.00 to 6.00
O=C(NCC#Cc1ncccc1Cl)C(=O)NCc1ccccc1C(=O)NC1(c2cc(F)cc(-c3cnn(C4CC4)c3)c2)CC1 [Example 263],> 7.00,> 6.00
C[C@@H](NC(=O)c1ccccc1CNC(=O)C(=O)NCC#N)c1cc(-c2cnn(C(F)F)c2)cc(C(F)(F)F)c1 [Example 463],6.00 to 7.00,5.00 to 6.00
O=C(NCC#Cc1cscn1)C(=O)NCc1ccccc1C(=O)NC1(c2cccc3ccccc23)CC1 [Example 159],> 7.00,> 6.00
COc1cnc(C#CCNC(=O)C(=O)NCc2ccccc2C(=O)NC2(c3ccc4ccccc4c3)CC2)cn1 [Example 198],> 7.00,> 6.00
N#CCNC(=O)C(=O)NCc1ccccc1C(=O)NC1(c2cc(F)c(F)c(-c3cccs3)c2)CC1 [Example 239],> 7.00,< 5.00
CCN(OC)C(=O)/C=C/CNC(=O)C(=O)NCc1ccccc1C(=O)NC1(c2cccc3ccccc23)CC1 [Example 558],6.00 to 7.00,5.00 to 6.00
O=C(NCC#Cc1nccs1)C(=O)NCc1ccccc1C(=O)NC1(c2ccc3nc(C4CC4)ccc3c2)CC1 [Example 396],> 7.00,> 6.00
C[C@@H](C#Cc1ncccc1Cl)NC(=O)C(=O)NCc1ccccc1C(=O)NC1(c2cc(F)cc(-c3cnn(C4CC4)c3)c2)CC1 [Example 264],> 7.00,> 6.00
O=C(NCC#Cc1cc(F)ccn1)C(=O)NCc1ccccc1C(=O)NC1(c2ccc3ccccc3c2)CC1 [Example 187],> 7.00,> 6.00
O=C(NC/C=C/C(=O)N1CC[C@H](O)C1)C(=O)NCc1ccccc1C(=O)NC1(c2cccc3ccccc23)CC1 [Example 555],6.00 to 7.00,5.00 to 6.00
N#CCNC(=O)C(=O)NCc1ccccc1C(=O)NC1(c2cn(-c3cnn(C4CC4)c3)c3ncccc23)CC1 [Example 409],> 7.00,5.00 to 6.00
N#Cc1cc(-c2cccs2)cc(C2(NC(=O)c3ccccc3CNC(=O)C(=O)NCC#Cc3nccs3)CC2)c1 [Example 129],> 7.00,> 6.00
C[C@@H](C#Cc1nccs1)NC(=O)C(=O)NCc1ccccc1C(=O)NC1(c2ccc3c(cnn3C)c2)CC1 [Example 346],> 7.00,> 6.00
Cc1nn(C2CC2)c(C)c1-c1cc(Cl)cc(C2(NC(=O)c3ccccc3CNC(=O)C(=O)NCC#Cc3nccs3)CC2)c1 [Example 132],> 7.00,> 6.00
O=C(C#CCNC(=O)C(=O)NCc1ccccc1C(=O)NC1(c2cccc3ccccc23)CC1)NC1CC(F)(F)C1 [Example 519],> 7.00,> 6.00
O=C(/C=C/CNC(=O)C(=O)NCc1ccccc1C(=O)NC1(c2cccc3ccccc23)CC1)NC1(C(F)(F)F)CC1 [Example 575],6.00 to 7.00,< 5.00

# Source: patent publication US20240327334A1, “Covalent Inhibitors As Antiviral Agents” (Enanta Pharmaceuticals, Inc., priority 2022, published 2024)
